Laboratory results reported in patent US6204002A, “Gangliosides having fluorescent-tagged ceramide moieties” (priority 1996, dated 2001).

What was measured:
[1] = system: influenza virus A/Aichi/2/68 (H3N2); test: TLC/virus binding assay: binding activity of ganglioside to influenza virus
[2] = format: physicochemical; settings: densitometer, GM3 adhered to a microplate; insufficient to detect influenza virus

Row | Compound | sensitivity relative to conventional sialyl(α2-6)lactosylceramide [1] | relative measurement intensity (response of densitometer at 620 nm minus response at 430 nm) ([1]; 6 nmol ganglioside spotted on TLC plate, reference point set equal to 100, FIG. 1) | detection of influenza virus (sensitivity) ([1]; TLC/virus binding assay, A/Aichi/2/68 (H3N2)) | detection sensitivity relative to GM3 ([1]; according to FIG. 1, A/Aichi/2/68 (H3N2)) | fluorescence of virus-bound compound in hydrophobic conditions [2]
1 | CCCCCCCCCCCCC/C=C/[C@@H](O)[C@H](CO[C@@H]1O[C@H](CO)[C@@H](O[C@@H]2O[C@H](CO[C@]3(C(=O)O)C[C@H](O)[C@@H](NC(C)=O)[C@H]([C@H](O)[C@H](O)CO)O3)[C@H](O)[C@H](O)[C@H]2O)[C@H](O)[C@H]1O)NC(=O)CCc1ccc(/C=C/C=C/C=C/c2ccccc2)cc1 [compound 3, O-(5-acetamide-3,5-dideoxy-D-glycero-α-D-galacto-2-nonuropyranosylonate)-(2→6)-O-(β-D-galactopyranosyl)-(1→4)-O-(β-D-glucopyranosyl)-(1→1)-(2S, 3R,4E)-2-(3-(p-(6-phenyl)1,3,5-hexatrienyl)phenylpropionamide)-4-octadecene-1,3-diol] | 4 times | 100% | very high sensitivity | 12 times | –
2 | O=C1OC2(c3ccc(O)cc3Oc3cc(O)ccc32)c2ccccc21 [GM3 fluorescein] | – | – | – | – | very weak fluorescence
